Source: patent publication US11897849B1, “N′-(2-(5-phenyl-1,3,4-oxadiazol-2-ylthio)acetoxy)-1-naphthimidamide as antimicrobial compound” (KING FAISAL UNIVERSITY, priority 2023, dated 2024)

What was measured:
Escherichia coli = experiment: Agar plate disc-diffusion, antibacterial; format: cell-based
Procedure: (§1) The agar plate disc-diffusion method was applied. […] The discs were then placed onto the surface of agar plates (nutrient agar for bacteria and Sabouraud's dextrose agar for fungi) seeded with the test organism. Each plate contained 15 of the agar medium, previously seeded with 0.2 mL of the broth culture of each organism pre-grown for 18 hours. The plates were incubated at 37° C. for 48 hours and 72 hours for fungi. The inhibition zones were measured in mm. Discs impregnated with DMSO were used as a control, and their inhibition zone was subtracted from the tested compound's actual inhibition zone.

Pseudomonas aeruginosa = experiment: Agar plate disc-diffusion, antibacterial; format: cell-based
Procedure: as §1

Bacillus cereus = experiment: Agar plate disc-diffusion, antibacterial; format: cell-based
Procedure: as §1

Staphylococcus aureus = experiment: Agar plate disc-diffusion, antibacterial; format: cell-based
Procedure: as §1

[1] = test system: Chrysosporium keratinophilum; experiment: Agar plate disc-diffusion, antifungal; format: cell-based
Procedure: The agar plate disc-diffusion method was applied. Sterilized filter papers (6 mm in diameter) were wetted with 10 μL of a solution of N′-(2-(5-phenyl-1,3,4-oxadiazol-2-ylthio)acetoxy)-2-naphthimidamide (3) to be tested, containing 10 mg/mL in DMSO, and the discs were allowed to air dry. The discs were then placed onto the surface of agar plates (nutrient agar for bacteria and Sabouraud's dextrose agar for fungi) seeded with the test organism. Each plate contained 15 of the agar medium, previously seeded with 0.2 mL of the broth culture of each organism pre-grown for 18 hours. The plates were incubated at 37° C. for 48 hours and 72 hours for fungi. The inhibition zones were measured in mm. Discs impregnated with DMSO were used as a control, and their inhibition zone was subtracted from the tested compound's actual inhibition zone.

Aspergillus flavus = experiment: Agar plate disc-diffusion, antifungal; format: cell-based
Procedure: as §1

[2] = A = concentration of comp. = 10,000 μL
[3] = B = concentration of comp. = 30.000 μL
[4] = C = concentration of comp. = 50,000 μL
[5] = column A (key only in Table 1: 10,000 μL)
[6] = column B (key only in Table 1: 30.000 μL)
[7] = column C (key only in Table 1: 50,000 μL)

SMILES	inhibition zone (Escherichia coli; [2]) [mm]	inhibition zone (Escherichia coli; [3]) [mm]	inhibition zone (Escherichia coli; [4]) [mm]	inhibition zone (Pseudomonas aeruginosa; [2]) [mm]	inhibition zone (Pseudomonas aeruginosa; [3]) [mm]	inhibition zone (Pseudomonas aeruginosa; [4]) [mm]	inhibition zone (Bacillus cereus; A = concentration of comp.) [mm]	inhibition zone (Bacillus cereus; [3]) [mm]	inhibition zone (Bacillus cereus; [4]) [mm]	inhibition zone (Staphylococcus aureus; [2]) [mm]	inhibition zone (Staphylococcus aureus; [3]) [mm]	inhibition zone (Staphylococcus aureus; [4]) [mm]	inhibition zone [1, 5] [mm]	inhibition zone [1, 6] [mm]	inhibition zone [1, 7] [mm]	inhibition zone (Aspergillus flavus; [5]) [mm]	inhibition zone (Aspergillus flavus; [6]) [mm]	inhibition zone (Aspergillus flavus; [7]) [mm]	melting point [°C]
O=C(O)c1cn(C2CC2)c2cc(N3CCNCC3)c(F)cc2c1=O [Cip., ciprofloxacin, reference compound]	30	39	60	29	30	53	29	30	42	43	44	53	–	–	–	–	–	–	–
N/C(=N\OC(=O)CSc1nnc(-c2ccccc2)o1)c1cccc2ccccc12 [Compound 3, N′-(2-(5-phenyl-1,3,4-oxadiazol-2-ylthio)acetoxy)-1-naphthimidamide]	35	39	45	22	30	37	19	26	35	29	35	44	29	37	43	15	22	30	177 to 178
